From patent US7309793B2, “Benzopyran derivatives substituted with a benzimidazole derivative, pharmaceutically acceptable salts therof, their preparations and pharmaceutical compositions containing them” (Dongbu Hannong Chemical Co., Ltd., priority 2003, dated 2007)
pIC50: −log10 of the molar value.

What was measured:
[1] = tested on: rat aorta; test: Vasodilating effect on blood vessel isolated from white rats (methoxamine-constricted aortic rings); settings: for pIC50: isolated rat aorta constricted with methoxamine (3 μM), endothelium removed, read-out: Concentration for inhibition of constriction induced by methoxamine in rat arota (IC50); for weaker vasorelaxation effect than that of BMS-180448 (times): ratio of IC50 versus BMS-180448
Text: White rats (350˜450 g; the Experimental Animal Team of the Korea Research Institute of Chemical Technology) were knocked to be unconscious by hitting the occipital region, sacrificed by cervical dislocation, and underwent thoracotomy. After being quickly removed, the thoracic aorta was deprived of the adipose tissue and cut into aortic rings of 3 mm width. The aorta was lightly rubbed with cotton club soaked in a modified Krebs Henseleit buffer (physiological salt solution) to remove the inner […] layer therefrom. While being hung in an organ bath containing a physiological buffer, the vascular smooth muscle was allowed to equilibrate under a resting tension of 2 g and then, stand for 1 hour at 37° C. for stabilization, supplying a carbogen consisting of 95% O2/5% CO2. Thereafter, the vascular smooth muscle was constricted with 10^−5 M phenylephrine and washed several times with physiological saline solution. The said procedure was repeated to ensure the stable reactivity of vascular smooth muscle to repetitive constriction/relaxation.
Thereafter, 3×10^−6 M methoxamine was applied to induce an intensive constriction in the vascular smooth muscle. When the vasoconstriction induced by the methoxamine was reached and maintained to a maximum, test compounds and control material were cumulatively added to the organ bath with concentration of 1, 3, 10 and 30 μM, respectively, to examine the vasodilating effect. Cromakalim and BMS-180448 (compound of <Formula 2>), known to be the first generation KATP opener with potent vasodilating effect, were used as control materials.
The change rate of constriction by the addition of the drugs compared to the maximal constriction induced by methoxamine was calculated to plot a concentration-relaxation response curve. Through a least linear regression analysis, IC50 that the drug concentration at which the vascular tissue is relaxed to 50% extent of the maximal constriction, was obtained for each drug. And the results were shown in the below Table 1.

[2] = tested on: isolated rat hearts; test: Cardioprotective effect on isolated ischemic heart models of white rats (Langendorff, global ischemia-reperfusion); settings: 10 μM; for LVDP × HR (left ventricular developed pressure × heart rate), % of pre-treatment / EDP (left ventricular end diastolic pressure): 30 min global ischemia, 30 min reperfusion; for EDP (left ventricular end diastolic pressure): baseline 5 mmHg; for LDH (concentration of lactate dehydrogenase, reperfusion release): after 30 min reperfusion; for TTC (time to contracture / time to induce contraction): during 30 min global ischemia, first 5 mmHg increase in EDP
Procedure: 100 mg/kg of sodium pentobarbital was injected in abdominal cavity of white male rats (300˜450 g; the experimental animal team of the Korea Research Institute of Chemical Technology) to anesthetize them. Then, an intravenous injection of 1000 U/kg of heparin was performed before taking out heart. Particularly, cannula(PE 240) was inserted in the trachea, and artificial respiration was tried upon the rat by using a rodent ventilator. Under that condition, aortic cannula was inserted in the aorta and heart was taken out under retrograde perfusion. The extracted heart was hung on Langendorff apparatus quickly and unnecessary tissues on heart were removed. Perfusion was induced under static pressure (85 mmHg) with 37° C. modified Krebs-Henseleit bicarbonate buffer (composition <mM/L>: 116 NaCl, 4.7 KCl, 1.1 MgSO4, 1.17 KH2PO4, 24.9 NaHCO3, 2.52 CaCl2, 8.32 Glucose, 2.0 Pyruvate) saturated with 95% O2/5% CO2. A metal cannula, to which a latex balloon filled with a ethanol-distilled water mixture (1:1 vol/vol) was linked, was inserted in left ventricle through pulmonary vein. Then, left ventricular pressure transmitted through the balloon was transduced by using pressure transducer, and amplified by using isovolumetric amplifier(Plugsys bridge amplifier). Then, the pressure was recorded in a recorder (Linearcorder mark 8 WR 3500). Thereafter, heart was stabilized for 15 minutes. Then, left ventricular end diastolic pressure (LVEDP) was given by 5 mmHg and such volume of the balloon was kept throughout the experiments.
Baseline cardiac contractile function, heart rate (HR), and coronary flow (CF) were measured. Cardiac contractile function was calculated by […], yielding LVDP (left ventricular developed pressure). Double product RPP (rate-pressure product)(DP), another important parameter for indirectly assessing cardiac performance in Langendorff heart, in which cardiac output could not be measured ordinarily, was calculated by multiplying HR by LVDP. Throughout the experiment, total coronary blood flow was measured by the use of coronary flow probe (diameter: 1.0 mm) installed in aortic cannula with electromagnetic flowmeter. Temperature of heart was steadily maintained by immersing the heart at 37° C. in physiological saline solution to which 95% O2/5% CO2 was constantly supplied. After stabilization for 15 min, the hearts were pre-treated for 10 min with vehicle (0.04% DMSO) only or a compound of the present invention or the control material in the vehicle. Thereafter, cardiac contractile function, HR and CF were repeatedly measured. Global ischemia was induced by completely shutting off the perfusate for 30 min. Severity of ischemia was determined as the time to contracture (TTC, min) during global ischemia in which the first 5 mmHg increase in EDP was observed. Then, the hearts were reperfused and, 30 min later, contractile functions (LVDP, HR and CF) were repeatedly measured. After reperfusion was accomplished for 30 min, LDH (lactate dehydrogenase) was measured with a kit as a sensitive index for loss of cell viability.

SMILES	pIC50 [1]	weaker vasorelaxation effects than that of Cromakalim (times) ([1]; ratio of IC50 versus Cromakalim)	LVDP × HR (left ventricular developed pressure × heart rate), % of pre-treatment [2] [%]	EDP (left ventricular end diastolic pressure) [2] [mmHg]	LDH (concentration of lactate dehydrogenase, reperfusion release) [2] [unit/g]	TTC (time to contracture / time to induce contraction) [2] [min]	weaker vasorelaxation effect than that of BMS-180448 (times) [1] [times]
CC1(C)Oc2ccc(C#N)cc2[C@@H](NC(=NC#N)Nc2ccc(Cl)cc2)[C@@H]1O [BMS-180448, reference compound]	5.86	twenty times weaker	67.6	16.5	17.2	27.8	
CC1(C)Oc2ccc(C#N)cc2C(N2CCCC2=O)C1O (centres unmarked) [Cromakalim, reference compound]	7.17						
COC(OC)[C@@]1(C)Oc2ccc([N+](=O)[O-])cc2[C@H](n2c(=NC#N)[nH]c3ccccc32)[C@H]1O [Example 1, (2S, 3R, 4S)-6-nitro-3,4-dihydro-3-hydroxy-2-dimethoxymethyl-2-methyl-4-(2,3-dihydro-2-cyanoimino-1H-benzimidazol-1-yl)-2H-1-benzopyran]	4.30		68.8	20.3	8.1	23.2	36
COC(OC)[C@@]1(C)Oc2ccc([N+](=O)[O-])cc2[C@H](n2c(=O)[nH]c3ccccc32)[C@H]1O [Example 18, (2S, 3R, 4S)-6-nitro-3,4-dihydro-3-hydroxy-2-dimethoxymethyl-2-methyl-4-(2,3-dihydro-2-oxo-1H-benzimidazol-1-yl)-2H-1-benzopyran]			41.5	29.3	20.4	24.2	
CC1(C)Oc2ccc([N+](=O)[O-])cc2[C@H](n2c(=O)[nH]c3ccccc32)[C@H]1O [Example 20, (3R, 4S)-6-nitro-3,4-dihydro-3-hydroxy-2,2-dimethyl-4-(2,3-dihydro-2-oxo-1H-benzimidazol-1-yl)-2H-1-benzopyran]	4.73		55.5	29.0	20.7	23.9	10
